Results reported in US11673876B2, “Substituted aminobenzyl heteroaryl compounds as EGFR and/or PI3K inhibitors” (Mekanistic Therapeutics LLC, priority 2020, dated 2023).

Columns and labels:
[1] = Pharmacokinetics in monkeys, single IV or oral administration; format: in vivo, monkey; conditions: for C0 / half-life / Cmax / Tmax: blood; for C0 / half-life / Cmax / Tmax / Cl_obs / F: monkey
Experimental: (§1) The pharmacokinetics of Compound 2R (HCl salt) and Comparative Compound 2 were studied following a single intravenous and/or oral administration to mice, dogs, and monkeys (n=3 for all species). The IV and PO solution formulations for Comparative Compound 2 contained 20% (w/v) propylene glycol, 75% (w/v) 50 mM trisodium phosphate (pH 12), and 5% (w/v) Kolliphor EL. The formulation for Compound 2R contained 1:2 propylene glycol: 1% Tween 80/Na3PO4 (50 mM). Subsequent pharmacokinetic data analysis was performed using non-compartmental analysis modules in Phoenix/WINNONLIN 6.3 (Pharsight, St. Louis, Mo., USA), and the linear trapezoidal rule was used for AUC calculation. Terminal elimination half-life (t½) was calculated based on data points (≥3) in the terminal phase; Tmax=Time of maximum observed concentration; AUClast/D=Area under the concentration-time curve from time zero to the last observed concentration/divided by dose; Cl_obs=Total body clearance; Cmax=maximum observed concentration; F=bioavailability of oral dose form. Blood samples were assayed for compounds using protein precipitation with acetonitrile followed by HPLC/MS/MS analysis. Blood concentration-time data were analyzed by non-compartmental methods.

[2] = Pharmacokinetics in dogs, single IV or oral administration; format: in vivo, dog; conditions: for C0 / half-life / Cmax / Tmax: blood; for C0 / half-life / Cmax / Tmax / Cl_obs / F: dog
Experimental: as §1

[3] = Pharmacokinetics in mice, single IV or oral administration; format: in vivo, mouse; conditions: for C0 / half-life / Cmax / Tmax: blood; for C0 / half-life / Cmax / Tmax / Cl_obs / F: mouse
Experimental: as §1

[4] = tested on: PIK3CA mutant human CAL-33 (squamous head and neck cancer); assay: CAL-33 xenograft study in NCR nude mice; format: in vivo; conditions: for Median Increase In Survival: time to 1000 mg vs vehicle
Experimental: (§2) Xenograft Studies. Female NCR nude mice (CrTac:NCr-Foxn1nu from Taconic), 6-7 weeks old, were implanted subcutaneously with 5×10^6 cells in a 1:1 serum-free media/Matrigel® mixture into the region of the right axilla. Mice were randomized into treatment groups and treatments initiated when tumors reached 100 to 200 mg. Compound 2R was administered daily by oral gavage as a fine suspension in 1:2 propylene (glycol in 1% Tween80/Na3PO4 based upon individual animal body weight (0.2 mL/20 g). Subcutaneous tumor volume and body weights were measured two to three times a week. Tumor volumes were calculated by measuring two perpendicular diameters with calipers and using the formula: tumor volume=(length×width2)/2. Individual mice were dosed daily until their tumor burden reached 500 mg for the CAL-27 and HCC-70 models or 1000 mg for the CAL-33 model, to allow for calculation of increase in progression-free survival. Percent increase in survival was calculated by comparing the median time to reach either 500 mg or 1000 mg in the treated group versus the vehicle control group. A complete response (CR) is defined as a tumor below the limits of palpation (<40 mg).
(§3) FIGS. 1-3 show the performance of Compound 2R in controlling tumor size. […] Tumor growth curves as well as survival and objective response data are summarized in the accompanying FIGS. 1-3 and the table below.

[5] = Tolerability in the xenograft studies; format: in vivo; conditions: highest dose tested 100 mg/kg, daily dosing over >50 days
Experimental: as §2, §3

[6] = tested on: human CAL-27 (squamous head and neck cancer); assay: CAL-27 xenograft study in NCR nude mice; format: in vivo; conditions: time to 500 mg vs vehicle
Experimental: as §2, §3

[7] = tested on: PI3K gamma mutant human CAL-27 (squamous head and neck cancer); assay: CAL-27 xenograft study in NCR nude mice; format: in vivo; conditions: CAL-27 model
Experimental: as §2, §3

[8] = tested on: human HCC-70 (triple negative breast cancer); assay: HCC-70 xenograft study in NCR nude mice; format: in vivo
Experimental: as §2, §3

Compound `CS(=O)(=O)Nc1cc(-c2ccc3ncnc(Nc4ccc(F)c(Cl)c4)c3c2)cnc1Cl` [Comparative Compound 2, reference compound] has a C0 ([1]; 1 mg/kg, IV, 1 mpk) of 5910 ng/mL, a half-life ([1]; 1 mg/kg, IV, 1 mpk) of 1.1 h and a Cmax ([1]; 10 mg/kg, oral, 10 mpk) of 110 ng/mL. It also gave a Tmax ([1]; 10 mg/kg, oral, 10 mpk) of 1 h, a half-life ([1]; 10 mg/kg, oral, 10 mpk) of 2 h and a Cl_obs ([1]; IV, 1 mpk) of 15.71 mL/min/kg. The F ([1]; oral, 10 mpk) was 3%, the C0 ([2]; 1 mg/kg, IV, 1 mpk) was 5490 ng/mL and the half-life ([2]; 1 mg/kg, IV, 1 mpk) was 0.7 h. For the same compound, the Cmax ([2]; 5 mg/kg, oral, 5 mpk) was 716 ng/mL, the Tmax ([2]; 5 mg/kg, oral, 5 mpk) was 2 h and the half-life ([2]; 5 mg/kg, oral, 5 mpk) was 0.8 h. For the same compound, the Cl_obs ([2]; IV, 1 mpk) was 10.50 mL/min/kg, the F ([2]; oral, 5 mpk) was 25% and the C0 ([3]; 10 mg/kg, IV, 10 mpk) was 25600 ng/mL. The half-life ([3]; 10 mg/kg, IV, 10 mpk) was 1.2 h, the Cmax ([3]; 10 mg/kg, oral, 10 mpk) was 8270 ng/mL and the Tmax ([3]; 10 mg/kg, oral, 10 mpk) was 1 h. For the same compound, the half-life ([3]; 10 mg/kg, oral, 10 mpk) was 1.4 h, the Cl_obs ([3]; IV, 10 mpk) was 3.3 mL/min/kg and the F ([3]; oral, 10 mpk) was 63%.

In the case of `C[C@@H](Nc1ncnc2ccc(-c3cnc(Cl)c(NS(C)(=O)=O)c3)cc12)c1ccccc1` [Compound 2R, N-(2-chloro-5-(4-((1R-phenylethyl)amino)quinazolin-6-yl)pyridin-3-yl)methanesulfonamide], the “Median Increase In Survival” value ([4]; CAL-33, 25 mg/kg daily oral gavage) is reported as greater than 700%, the “Median Increase In Survival” value ([4]; CAL-33, 50 mg/kg daily oral gavage) is reported as greater than 700% and the “Median Increase In Survival” value ([4]; CAL-33, 100 mg/kg daily oral gavage) is reported as greater than 700%. For the same compound, the “single agent activity (tumor growth)” value ([4]; CAL-33 model) was “Single agent activity of Compound 2R was demonstrated”, the “tolerability (body weight loss, clinical signs)” value [5] was “well tolerated at the highest dose tested (100 mg/kg) with no signs of body weight loss or other clinical signs” and the “Median Increase In Survival” value ([6]; CAL-27, 10 mg/kg daily oral gavage) was 328%. The “Median Increase In Survival” value ([6]; CAL-27, 100 mg/kg daily oral gavage) was greater than 700%, the “single agent activity (tumor growth)” value [7] was “Single agent activity of Compound 2R was demonstrated” and the C0 ([1]; 1 mg/kg, IV, 1 mpk) was 4170 ng/mL. The half-life ([1]; 1 mg/kg, IV, 1 mpk) was 2.3 h, the Cmax ([1]; 10 mg/kg, oral, 10 mpk) was 4710 ng/mL and the Tmax ([1]; 10 mg/kg, oral, 10 mpk) was 2 h. For the same compound, the half-life ([1]; 10 mg/kg, oral, 10 mpk) was 4 h, the Cl_obs ([1]; IV, 1 mpk) was 4.81 mL/min/kg and the F ([1]; oral, 10 mpk) was 59%. The “increase in exposure (AUClast/D) compared to Comparative Compound 2” value (“increase in exposure (AUClast/D)” below) ([1]; monkeys, IV) was roughly 3 fold, the “improvement in exposure (AUClast/D) relative to Comparative Compound 2” value ([1]; monkeys, oral) was greater than 74 fold and the C0 ([2]; 1 mg/kg, IV, 1 mpk) was 7150 ng/mL. It also gave a half-life ([2]; 1 mg/kg, IV, 1 mpk) of 10.4 h, a Cmax ([2]; 5 mg/kg, oral, 5 mpk) of 7090 ng/mL and a Tmax ([2]; 5 mg/kg, oral, 5 mpk) of 2 h. It also gave a half-life ([2]; 5 mg/kg, oral, 5 mpk) of 12 h, a Cl_obs ([2]; IV, 1 mpk) of 0.52 mL/min/kg and an F ([2]; oral, 5 mpk) of 48%. For the same compound, the “increase in exposure (AUClast/D)” value ([2]; dogs, dosed intravenously) was roughly 15 fold, the “improvement in exposure (AUClast/D) relative to Comparative Compound 2” value ([2]; dogs, oral) was greater than 28 fold and the “Median Increase In Survival” value ([8]; HCC-70, 100 mg/kg daily oral gavage, time to 500 mg vs vehicle) was 363%. For the same compound, the “single agent activity (tumor growth)” value ([8]; HCC-70 model) was “Single agent activity of Compound 2R was demonstrated”, the C0 ([3]; 5 mg/kg, IV, 5 mpk) was 25700 ng/mL and the half-life ([3]; 5 mg/kg, IV, 5 mpk) was 2.5 h. The Cmax ([3]; 25 mg/kg, oral, 25 mpk) was 21700 ng/mL, the Tmax ([3]; 25 mg/kg, oral, 25 mpk) was 4.17 h and the half-life ([3]; 25 mg/kg, oral, 25 mpk) was 4.9 h. The “increase in exposure (AUClast/D)” value ([3]; mice, IV) was roughly 3 fold, the “enhanced exposure relative to Comparative Compound 2” value ([3]; mice, oral) was 3 fold and the Cl_obs ([3]; IV, 5 mpk) was 1.2 mL/min/kg. For the same compound, the F ([3]; oral, 25 mpk) was 83%.
